Reference: PubChem BioAssay (NCI)
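Cultured in 96-well plates, cells were exposed to test compound for 48 hours across five concentrations. GI50 = concentration required for 50% inhibition of growth. The concentration for full growth arrest is given as TGI.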

Columns and labels:
Test in all cases: NCI anticancer screen, dose series, 48 h
[1] = system: NCI-H522 lung
[2] = system: M14 melanoma
[3] = system: OVCAR-5 ovarian
[4] = system: SK-MEL-5 melanoma
[5] = system: HCC-2998 colon
[6] = system: SR leukemia
[7] = system: HCT-15 colon
[8] = system: SW-620 colon
[9] = system: LOX IMVI melanoma
[10] = system: IGROV1 ovarian

NCc1ccc(C(=O)O)cc1
TGI [1]: > 100 µM | TGI [2]: > 100 µM | TGI [3]: > 100 µM | TGI [4]: > 100 µM | TGI [5]: > 100 µM | TGI [6]: > 100 µM | TGI [7]: > 100 µM | TGI [8]: > 100 µM | TGI [9]: > 100 µM | TGI [10]: > 100 µM

CCO/N=[N+](\[O-])N(CC)CC
TGI [1]: > 100 µM | TGI [2]: > 100 µM | TGI [3]: > 100 µM | TGI [4]: > 100 µM | TGI [5]: > 100 µM | TGI [6]: > 100 µM | TGI [7]: > 100 µM | TGI [8]: > 100 µM | TGI [9]: > 100 µM | TGI [10]: > 100 µM

COc1cc(C2c3cc4c(cc3[C@@H](Nc3cccc(C(C)=O)c3)C3COC(=O)[C@H]23)OCO4)cc(OC)c1O (stereo partly specified)
TGI [1]: 5.77 µM | TGI [3]: > 59.7 µM | TGI [4]: 2.37 µM | TGI [5]: 3.23 µM | TGI [7]: 2.06 µM | TGI [8]: > 38.2 µM | TGI [9]: 4.38 µM | TGI [10]: 24.6 µM

CC[n+]1c(/C=C/c2ccc(N(CCCl)CCCl)cc2)ccc2cc(NC(=O)/C=C/c3ccccc3)ccc21
TGI [1]: 1.17 µM | TGI [2]: 3.28 µM | TGI [3]: 6.03 µM | TGI [4]: 0.632 µM | TGI [5]: 1.37 µM | TGI [6]: 0.728 µM | TGI [7]: > 94.7 µM | TGI [8]: 0.67 µM | TGI [9]: 1.51 µM | TGI [10]: 1.86 µM

ClCc1c(Cl)c(Cl)c(Cl)c(CCl)c1Cl
GI50 [1]: 1.51 µM | TGI [1]: 3.12 µM | GI50 [2]: 1.66 µM | TGI [2]: 3.43 µM | GI50 [3]: 1.93 µM | TGI [3]: 4.18 µM | GI50 [4]: 2.23 µM | TGI [4]: 6.25 µM | GI50 [5]: 1.78 µM | TGI [5]: 3.45 µM | GI50 [6]: 1.48 µM | TGI [6]: 5 µM | GI50 [7]: 1.52 µM | TGI [7]: 2.85 µM | GI50 [8]: 1.71 µM | TGI [8]: 3.12 µM | GI50 [9]: 1.46 µM | TGI [9]: 3.13 µM | GI50 [10]: 1.97 µM | TGI [10]: 4.19 µM

CN(C)c1ccc(N=Nc2ccccn2)cc1
TGI [1]: > 100 µM | TGI [2]: > 100 µM | TGI [3]: > 100 µM | TGI [4]: > 100 µM | TGI [5]: 59.7 µM | TGI [7]: > 100 µM | TGI [8]: > 100 µM | TGI [9]: > 100 µM | TGI [10]: > 100 µM

Brc1ccccc1-c1ncc(-c2ccccc2)o1
TGI [1]: 49.9 µM | TGI [2]: > 100 µM | TGI [3]: > 100 µM | TGI [4]: 34.5 µM | TGI [5]: 80.4 µM | TGI [7]: 44.9 µM | TGI [8]: > 100 µM | TGI [9]: 34.1 µM | TGI [10]: 78.7 µM

COc1ccc(-c2cc(N3CCN(c4ccccc4)CC3)c(C#N)c(=O)o2)cc1
TGI [2]: > 100 µM | TGI [3]: > 100 µM | TGI [4]: > 100 µM | TGI [5]: > 100 µM | TGI [6]: > 100 µM | TGI [7]: > 100 µM | TGI [8]: > 100 µM | TGI [9]: > 100 µM | TGI [10]: > 100 µM

COc1ccc(NC(=O)/C(CC2=Nc3ccc([N+](=O)[O-])cc3NC2O)=N\NC(=O)C[N+](C)(C)C)c(OC)c1 (stereo unspecified)
TGI [1]: > 100 µM | TGI [2]: > 100 µM | TGI [3]: > 100 µM | TGI [4]: 96.3 µM | TGI [5]: > 100 µM | TGI [6]: 48.6 µM | TGI [7]: > 100 µM | TGI [8]: > 100 µM | TGI [9]: > 100 µM | TGI [10]: > 100 µM

CCOC(=O)/C=C(\C)c1ccc(OC)cc1
TGI [2]: > 100 µM | TGI [3]: > 100 µM | TGI [4]: > 100 µM | TGI [5]: > 100 µM | TGI [6]: > 100 µM | TGI [7]: > 100 µM | TGI [8]: > 100 µM | TGI [9]: > 100 µM | TGI [10]: > 100 µM

CC(C)C[P+](c1ccccc1)(c1ccccc1)c1ccccc1
TGI [1]: > 100 µM | TGI [2]: > 100 µM | TGI [3]: > 100 µM | TGI [4]: 18.2 µM | TGI [5]: > 100 µM | TGI [7]: > 100 µM | TGI [8]: > 100 µM | TGI [9]: > 100 µM | TGI [10]: > 100 µM

C=C1C(=O)OC2C1CC(O)/C(C)=C\CCC1(C)OC21 (stereo unspecified)
TGI [1]: 33 µM | TGI [2]: 64.4 µM | TGI [3]: 75 µM | TGI [4]: 47.5 µM | TGI [5]: 79.9 µM | TGI [6]: 61.2 µM | TGI [7]: 33.5 µM | TGI [8]: > 100 µM | TGI [9]: 78.7 µM | TGI [10]: > 100 µM

Cc1nc2ccccc2c(=O)[nH]1
TGI [1]: > 100 µM | TGI [2]: > 100 µM | TGI [3]: > 100 µM | TGI [4]: > 100 µM | TGI [5]: > 100 µM | TGI [7]: > 100 µM | TGI [8]: > 100 µM | TGI [9]: > 100 µM | TGI [10]: > 100 µM

N#Cc1c(NC(=S)NC(=O)c2ccccc2)nc2c(c1-c1ccccc1)CCCC2
TGI [2]: > 100 µM | TGI [3]: > 100 µM | TGI [4]: > 100 µM | TGI [6]: > 100 µM | TGI [7]: > 100 µM | TGI [8]: > 100 µM | TGI [9]: > 100 µM | TGI [10]: > 100 µM

CC(C)(Br)C1(O)CCCN1C(=O)c1ccccc1 (stereo unspecified)
TGI [1]: > 100 µM | TGI [2]: > 100 µM | TGI [3]: > 100 µM | TGI [4]: > 100 µM | TGI [5]: > 100 µM | TGI [6]: > 100 µM | TGI [7]: > 100 µM | TGI [8]: > 100 µM | TGI [9]: > 100 µM | TGI [10]: > 100 µM

CCC(C)C(=O)c1c(O)c(C/C=C(\C)CCC=C(C)C)c(O)c2c(C(O)CC)cc(=O)oc12 (stereo unspecified)
TGI [1]: 5.73 µM | TGI [2]: 14.4 µM | TGI [3]: 17.9 µM | TGI [4]: 2.74 µM | TGI [5]: 2.09 µM | TGI [6]: 3.48 µM | TGI [8]: 14 µM | TGI [9]: 12.6 µM | TGI [10]: 13.6 µM

COc1ccc(NC(=O)/C(=C/c2ccc(N(CCC#N)CCC#N)cc2)NC(=O)c2cc([N+](=O)[O-])ccc2Cl)cc1
TGI [1]: > 100 µM | TGI [2]: > 100 µM | TGI [3]: > 100 µM | TGI [4]: > 100 µM | TGI [5]: > 100 µM | TGI [6]: > 100 µM | TGI [7]: > 100 µM | TGI [8]: > 100 µM | TGI [9]: > 100 µM | TGI [10]: > 100 µM

NCc1ccccc1C1CSCSC1
TGI [1]: > 100 µM | TGI [4]: > 100 µM | TGI [7]: > 100 µM | TGI [8]: > 100 µM | TGI [9]: > 100 µM

O=[N+]([O-])c1cn[n+]([O-])c2ccccc12
TGI [2]: 13 µM | TGI [3]: 25.6 µM | TGI [4]: 26.7 µM | TGI [5]: 3.44 µM | TGI [7]: 8.52 µM | TGI [8]: 4.91 µM | TGI [9]: 20.9 µM
